{
  "source": "patent US10071981B2",
  "about": "“Method of priming plants against abiotic stress factors” (Research Foundation of The City University of New York, priority 2014, dated 2018)",
  "assay_type_in_all_cases": "in vivo",
  "key": {"[1]": {"system": "Medicago sativa plants", "assay": "Lipid peroxidation (leaf MDA/TBARS content) in drought-stressed plants", "conditions": "FIG. 13", "description": "(§1) Mature (42 d) Medicago sativa plants were used for the purposes of this study. These were grown in soil medium under controlled, optimal growth conditions and were then subjected to drought stress. Drought was imposed by withholding watering until drought symptoms (loss of turgour, wilting, chlorosis) were observed (6 d after stress imposition). Samples were then re-watered to observe recovery potential after 1 day (7 d). Both NOSH and NOSH-aspirin were applied at 100 μM concentration by foliar spraying at the start of stress imposition. The hybrid donors were diluted in 30% (v/v) methanol. Physiological parameters (stomatal conductance and chlorophyll fluorescence) were measured with a DT-Porometer AP4 (Delta-TDevices, Cambridge, UK) and an OptiSci OS-30p chlorophyll fluorometer (Opti-Sciences, Hudson, N.H., USA) respectively (Filippou et al., 2013). Chlorophyll fluorescence (Fv/Fm) of leaves represents the maximum photochemical efficiency of photosystem II (PSII). Cellular damage was evaluated by lipid peroxidation levels (TBARS content), nitric oxide (NO) content (nitrosative stress) and hydrogen peroxide (H2O2) content (oxidative stress) as previously described (Filippou et al., 2011; Tanou et al., 2012), while osmoprotective capacity was evaluated by proline content (ninhydrin assay) as previously described (Antoniou et al., 2013). Antioxidant enzyme activities (SOD and CAT) were measured as previously described (Filippou et al., 2014). Real-time RT-PCR gene expression analysis was carried out using a Biorad IQ5 thermocycler as previously described (Filippou et al., 2013). Relative quantification of gene expression and statistical analysis of all qRT-PCR data (pairwise fixed reallocation randomization test) were performed using the REST software according to Pfaffl et al. (2002). The actin 11 gene was used as a housekeeping reference gene. All analyses were carried out using three independent biological pools of samples as replicates (with a minimum of fifteen independent plants per pooled sample). The experimental setup is shown schematically in FIG. 8.\n(§2) An examination of cellular damage levels was performed by means of spectrophotometric determination of lipid peroxidation."}, "[2]": {"system": "Medicago truncatula plants", "assay": "Lipid peroxidation (leaf MDA/TBARS content) in drought-stressed plants", "conditions": "for leaf MDA content (lipid peroxidation): diluted in 70% (v/v) MetOH, FIG. 1", "source_text": "Cellular damage in leaves can be measured by determining lipid peroxidation (Malondialdehyde [MDA] content) and hydrogen peroxide (H2O2) levels. Lipid peroxidation is a widely used stress indicator of plant membranes. For example, the method described by Heath and Packer is the basic protocol used or adapted in numerous studies dealing with lipid peroxidation. See Heath R L, Packer L. 1968, Photoperoxidation in isolated chloroplasts. I. Kinetics and stoichiometry of fatty acid peroxidation. Archives in Biochemistry and Biophysics 125, 189-198. Measuring hydrogen peroxide levels is also well known in the art.\n(§3) Mature (40 d) Medicago truncatula ecotype Jemalong A17 plants were used for the purposes of this study. These were grown in soil medium under controlled, optimal growth conditions and were then subjected to drought stress. Drought was imposed by withholding watering for 9 d (for detailed growth and stress conditions see Filippou et al., 2011). Both NOSH and NOSH-aspirin were applied at 100 μM concentration by foliar spraying at the start of stress imposition. The hybrid donors were diluted in 70% (v/v) and 30% (v/v) methanol, 20% (v/v) acetone or 20% (v/v) DMSO. Cellular damage was evaluated by lipid peroxidation levels (TBARS content) and hydrogen peroxide (H2O2) content as previously described (Filippou et al., 2011; Tanou et al., 2012), while osmoprotective capacity was evaluated by proline content (ninhydrin assay) as previously described (Antoniou et al., 2013). Real-time RT-PCR gene expression analysis was carried out using a Biorad IQ5 thermocycler as previously described (Filippou et al., 2013b). Relative quantification of gene expression and statistical analysis of all qRT-PCR data (pairwise fixed reallocation randomization test) were performed using the REST software according to Pfaffl et al. (2002). The actin 11 gene was used as a housekeeping reference gene. All analyses were carried out using three independent biological pools of samples as replicates (with a minimum of three independent plants per pooled sample).\nas §2"}, "[3]": {"system": "Medicago sativa plants", "assay": "Proline content (ninhydrin assay) in leaves of drought-stressed plants", "conditions": "100 μM; vs drought-stressed alone samples; FIG. 15", "description": "as §1, with “Antioxidant enzyme activities (SOD and CAT) were measured as previously described (Filippou et al., 2014). Real-time RT-PCR gene expression analysis was carried out using a Biorad IQ5 thermocycler as previously described (Filippou et al., 2013). Relative quantification of gene expression and statistical analysis of all qRT-PCR data (pairwise fixed reallocation randomization test) were performed using the REST software according to Pfaffl et al. (2002). The actin 11 gene was used as a housekeeping reference gene. All analyses were carried out using three independent biological pools of samples as replicates (with a minimum of fifteen independent plants per pooled sample). The experimental setup is shown schematically in FIG. 8.” left out"}, "[4]": {"system": "Medicago sativa plants", "assay": "Macroscopic (phenotypic) observation of drought-stressed plants", "conditions": "for phenotype (vitality, turgor, greening): 100 μM foliar spraying, 30% MetOH, 6 d after stress imposition, vs drought-stressed plants, FIG. 9; for recovery capacity (phenotype): day 7 (6 d drought + 1 d rewatering), vs drought-stressed alone, FIG. 10; for phenotype after second wave of drought stress: day 13, another 6 days without watering, FIG. 11", "description": "where cPTIO represents a NO inhibitor, while HXL is a H2S inhibitor. In addition to the previous setup of sampling control and drought-stressed samples, plants were re-watered at 6 d after drought stress imposition and additional sampling was carried out 1 d after rewatering to examine recovery of plants, while a second wave of drought stress was imposed to see if primed plants develop a longer-term, ‘memory’ effect. Plant Material and Stress Conditions\nas §1"}, "[5]": {"system": "Medicago truncatula plants", "assay": "Hydrogen peroxide content in leaves of drought-stressed plants", "conditions": "100 μM foliar spraying", "description": "as §3, with “All analyses were carried out using three independent biological pools of samples as replicates (with a minimum of three independent plants per pooled sample).” left out"}, "[6]": {"conditions": "100 μM, 6 d drought, vs drought-stressed samples"}, "[7]": {"conditions": "100 μM foliar spraying, drought 9 d"}},
  "data": [
    {"smiles": "O=C(CCCO[N+](=O)[O-])Oc1ccc(-c2cc(=S)ss2)cc1", "note": "[NOSH]", "values": [
      {"measurement": "MDA content (lipid peroxidation)", "setting": "[1]; [6]", "value": "statistically significant protection"},
      {"measurement": "MDA content (lipid peroxidation)", "setting": "[1]; 7 d (after rewatering)", "value": "maintained low MDA content levels close to those of control, watered samples"},
      {"measurement": "leaf MDA content (lipid peroxidation)", "setting": "[2]; [7]", "value": "lowered"},
      {"measurement": "proline content", "setting": "[3]", "value": "significantly lower proline content"},
      {"measurement": "phenotype (vitality, turgor, greening)", "setting": "[4]", "value": "significantly improved vitality, turgor and greening"},
      {"measurement": "recovery capacity (phenotype)", "setting": "[4]", "value": "notably improved recovery capacity"},
      {"measurement": "phenotype after second wave of drought stress", "setting": "[4]", "value": "maintained growth and vitality"}
    ]},
    {"smiles": "O=C(CCCO[N+](=O)[O-])Oc1ccccc1C(=O)Oc1ccc(-c2cc(=S)ss2)cc1", "note": "[NOSH-A]", "values": [
      {"measurement": "MDA content (lipid peroxidation)", "setting": "[1]; [6]", "value": "statistically significant protection"},
      {"measurement": "MDA content (lipid peroxidation)", "setting": "[1]; 7 d (after rewatering)", "value": "maintained low MDA content levels close to those of control, watered samples"},
      {"measurement": "lipid peroxidation levels (leaf MDA content)", "setting": "[2]; 100 μM foliar spraying, 30% (v/v) MetOH, drought 9 d, vs drought-stressed control, FIG. 2", "value": "significantly lower lipid peroxidation levels"},
      {"measurement": "leaf MDA content (lipid peroxidation)", "setting": "[2]; [7]", "value": "statistically significant protection"},
      {"measurement": "lipid peroxidation levels", "setting": "[2]; 100 μM, solvent 20% DMSO or 20% acetone (solvent itself toxic)", "value": "lower lipid peroxidation levels"},
      {"measurement": "H2O2 levels", "setting": "[5]; 30% (v/v) MetOH, vs drought-stress samples, FIG. 5", "value": "significantly lower H2O2 levels"},
      {"measurement": "H2O2 content", "setting": "[5]; 70% (v/v) MetOH, drought 9 d, FIG. 4", "value": "significantly reversed"},
      {"measurement": "proline content", "setting": "[3]", "value": "significantly lower proline content"},
      {"measurement": "phenotype (vitality, turgor, greening)", "setting": "[4]", "value": "significantly improved vitality, turgor and greening"},
      {"measurement": "recovery capacity (phenotype)", "setting": "[4]", "value": "notably improved recovery capacity"},
      {"measurement": "phenotype after second wave of drought stress", "setting": "[4]", "value": "maintained growth and vitality"}
    ]}
  ]
}
